# Laboratory results: patent US12102685B2, “Immodulator peptides covalently modified with small molecules” (priority 2020, dated 2024)
# Marks after values point to notes of the source that are not given here. Peptide text beside a SMILES is read from it.
# Assays:
# NF-kappa-B (NFkB) = test: THP1-Dual monocyte reporter, NF-kappa-B readout (x4A); assay type: cell-based
# Procedure: (§1) Immune modulation functions of immodulator peptides were measured using the monocyte reporter cell line THP1-Dual (Invivogen, San Diego, CA), which provides convenient readouts for STING and NF-kappa-B pathways. Optionally, succinic acid, cytokine and chemokine production were also measured. THP1-Dual cell line was obtained from Invivogen. Cells were grown in a T-75 flask in RPMI Medium containing 20% fetal bovine serum, blasticidin ([…]), zeocin ([…]) and penicillin-streptomycin at 37° C. in a humidified, 5% CO2 incubator. Cells ([…], 8,000 cells/well) were plated in a 96-well plate and incubated overnight at 37 °C in a humidified, 5% CO2 incubator. Next day, […] of compounds were added (quadruplicate wells). After 24 hour incubation with the compound, supernatants were harvested and stored at 4° C. prior to assay.
# (§2) Each cell supernatant was assayed in quadruplicate. 20 uL of supernatant was used to measure NF-kappa-B (NFkB) and
# (§3) STING activity using reagents QuantiBlu and QuantiLuc respectively, according to the manufacturer's recommendations (Invivogen, San Diego, CA). Succinic acid was measured by using a kit from Megazyme Inc (Cambridge, MA). Control value of activity was set to 100 in each assay. […] PAM3C=25 ng/ml PAM3CSK4 (TLR1/2 inducer); Poly(I:C)=10 ug/ml (TLR3 inducer); PAM2C=25 ng/ml PAM2CSK4 (TLR2/6 inducer); KIN14=4 uM KIN-1400 (RIG-I inducer); cytB=1 uM cytosporone B (Nur77 inducer); C-178=1 uM STING inhibitor; NFkBi=50 ug/ml NFkB inhibitor peptide; SB2021=10 uM p38MAPK inhibitor; *p<0.05, **p<0.01 vs IM3 control; #p<0.01 vs “no inducer” control; SUCC=succinic acid; nd=not done; Peptide was added to cells at 400 nM.
# (§4) Peptides were added to cells at 400 nM. […]
# STING = test: THP1-Dual monocyte reporter, STING readout (x4A); assay type: cell-based
# Procedure: as §1, §2, §3, §4
# [1] = IM3 / FITC-PI(4,5)P2 binding on metal-charged NTA plates (x9C)
# Procedure: NTA-coated 96-well plates were charged with either 500 uM zinc chloride or 500 uM ferric chloride and washed. Immodulator peptide IM3 (100 ng/well) and FITC-PI(4,5)P2 (50 ng/well) were added, with or without 2 ug/well cold PPI, and incubated at room temperature for 60 minutes. The plate was washed and counted in a fluorometer.
# rat scald model = test: Rat scald model, nephrilin plus or minus metal (x5A); assay type: in vivo, Sprague Dawley rats; conditions: male rats, burn, 4 mg/kg sc once daily days 1-7
# Procedure: Experiment x5A. Nephrilin peptide (IM3N1) is a designed inhibitor of Rictor complex (also known as mTORC2), an evolutionarily conserved assembly believed to modulate responses to cellular stress. […] This study explores the effect of nephrilin plus iron formulations on clinically relevant outcomes in the rat scald model. Animals were treated with nephrilin by subcutaneous bolus injection on days 1-7 post-burn. Equimolar ferric iron in the formulation improved the positive systemic effects of nephrilin on kidney function, glycemic control, oxidative stress, early hyperinflammation, late inflammasome activation, hyperangiogenesis and body mass, all variables previously shown to bear upon clinically relevant burn injury outcomes. The rat scald model and measurement of clinically relevant variables are disclosed in U.S. Pat. No. 10,369,191. Adult Sprague Dawley rats of both sexes (250-300 gm, Charles River Laboratories, Wilmington, MA, USA) were injected with nephrilin peptide plus or minus equimolar metal (zinc, ferrous iron or ferric iron) once daily by subcutaneous bolus injection, days 1-7; Treatment group sizes were (n=8) for each sex unless otherwise indicated: group S=sham-treated; group B=burn+vehicle; group N1=burn+4 mg/kg nephrilin; group N1/Zn2=burn+4 mg/kg nephrilin/zinc chloride; group N1/Fe2=burn+4 mg/kg nephrilin/ferrous sulphate; groups N1/Fe3 (2, 4 or 8)=burn+2, 4, or 8 mg/kg nephrilin/equimolar ferric chloride. The first dose was administered after completion of the scald procedure. Injection volume was 400 uL. Control animals received the same volume of vehicle.
# To make global comparisons of treatment efficacy, we converted values to z-scores. All scores within an efficacy class were averaged, allowing allocation of equal weight to efficacy classes. A composite z-score (average z score across all 7 effect classes) is shown in the last row of the table. This allows direct comparison of efficacy across treatment groups. The sham treatment involves manipulating the animals exactly as in the burn group, but without the burn treatment. The efficacy value for the sham (0.82) is thus the positive control. The negative control is the Burn+vehicle group (−0.61). […] Compared to vehicle or nephrilin treatment alone (−0.31), nephrilin with ferric iron (0.27) is at least twice as efficacious overall. Male rats in the scald model were exposed to vehicle, 2, 4 and 8 mg/kg nephrilin complexed with ferric iron.
# [2] = peptide 400 nM + KIN1400 (= 100)
# [3] = peptide 400 nM + KIN1400 + C-178 1 uM
# [4] = peptide 400 nM + KIN1400 + NFkBi 50 ug/ml
# [5] = peptide 400 nM + KIN1400 + SB2021 10 uM
# [6] = peptide 400 nM + KIN1400 + cytB 1 uM
# [7] = peptide 400 nM + PAM2C + C-178 1 uM
# [8] = peptide 400 nM + PAM2C + NFkBi 50 ug/ml
# [9] = peptide 400 nM + PAM2C + SB2021 10 uM
# [10] = peptide 400 nM + PAM2C + cytB 1 uM
# [11] = peptide 400 nM + PAM3C + C-178 1 uM
# [12] = peptide 400 nM + PAM3C + NFkBi 50 ug/ml
# [13] = peptide 400 nM + PAM3C + SB2021 10 uM
# [14] = peptide 400 nM + PAM3C + cytB 1 uM
# [15] = peptide 400 nM + PAM3C, control = 100
# [16] = peptide 400 nM, no inducer, control = 100
compound,measurement,setting,value
N=C(N)NCCC[C@H](NC(=O)CNC(=O)[C@H](CCCCN)NC(=O)[C@H](CO)NC(=O)[C@@H]1CCCN1C(=O)[C@H](CCCNC(=N)N)NC(=O)[C@H](CS)NC(=O)[C@H](CCC(N)=O)NC(=O)[C@H](CCCCN)NC(=O)[C@H](CCCCN)NC(=O)[C@H](CCCCN)NC(=O)[C@H](Cc1ccc(O)cc1)NC(=O)[C@H](Cc1ccccc1)NC(=O)CNC(=O)[C@H](CCCCN)NC(=O)[C@@H](N)CCCCN)C(=O)N[C@@H](CCCCN)C(=O)N[C@@H](CCCNC(=N)N)C(=O)NCC(=O)N[C@@H](Cc1ccccc1)C(=O)N[C@@H](CS)C(=O)N[C@@H](Cc1c[nH]c2ccccc12)C(=O)O [IM3] (H-KKGFYKKKQCRPSKGRKRGFCW-OH; N-terminus and C-terminus assumed),NFkB,NF-kappa-B (NFkB); [2],100
same,NFkB,NF-kappa-B (NFkB); [3],98.1
same,NFkB,NF-kappa-B (NFkB); [4],104.4
same,NFkB,NF-kappa-B (NFkB); [5],131.3**
same,NFkB,NF-kappa-B (NFkB); [6],103.5
same,NFkB,NF-kappa-B (NFkB); peptide 400 nM + PAM2C (= 100),100
same,NFkB,NF-kappa-B (NFkB); [7],108.0**
same,NFkB,NF-kappa-B (NFkB); [8],118.7*
same,NFkB,NF-kappa-B (NFkB); [9],65.4**
same,NFkB,NF-kappa-B (NFkB); [10],99.8
same,NFkB,NF-kappa-B (NFkB); [11],561
same,NFkB,NF-kappa-B (NFkB); [12],458**
same,NFkB,NF-kappa-B (NFkB); [13],296**
same,NFkB,NF-kappa-B (NFkB); [14],576
same,NFkB,NF-kappa-B (NFkB); [15],575
same,NFkB,NF-kappa-B (NFkB); [16],94**
same,STING,STING; [2],100
same,STING,STING; [3],81.1**
same,STING,STING; [4],105.0
same,STING,STING; [5],75.6**
same,STING,STING; [6],87.5*
same,STING,STING; peptide 400 nM + PAM2C (= 100),100
same,STING,STING; [7],62.0**
same,STING,STING; [8],119.1*
same,STING,STING; [9],18.9**
same,STING,STING; [10],96.5
same,STING,STING; [11],566**
same,STING,STING; [12],1294**
same,STING,STING; [13],274**
same,STING,STING; [14],1318**
same,STING,STING; [15],1474
same,STING,STING; [16],91**
same,"fluorescence, FITC-PI(4,5)P2","[1]; Ferric iron, cold PI(3)P1 2 ug/well",78.5 ± 5.8
same,"fluorescence, FITC-PI(4,5)P2","[1]; Ferric iron, cold PI(3,5)P2 2 ug/well",100.0 ± 3.2
same,"fluorescence, FITC-PI(4,5)P2","[1]; Ferric iron, no cold PPI",80.1 ± 1.8
same,"fluorescence, FITC-PI(4,5)P2","[1]; No metal, no cold PPI, IM3 100 ng/well",0.0 ± 0.2
same,"fluorescence, FITC-PI(4,5)P2","[1]; Zinc, no cold PPI",2.2 ± 0.3
RGVTEDYLRLETLVQKVVSKGFYKKKQCRPSKGRKRGFCW [IM3N1],1: early inflammation (24-hr plasma IL-6),rat scald model,50.6 ± 6.1 pg/mL
same,2a: 14-day plasma inflammasome marker IL18,rat scald model,178.1 ± 19.3 pg/mL
same,2b: 14-day plasma inflammasome marker IL1b,rat scald model,124.3 ± 132 pg/mL
same,3a: 14-day plasma hyperangiogenesis marker VEGF-A,rat scald model,56.1 ± 11.7 pg/mL
same,3b: 14-day plasma hyperangiogenesis marker CCL5,rat scald model,609.7 ± 283 pg/mL
same,3c: 14-day plasma hyperangiogenesis marker CXCL5,rat scald model,1910 ± 380 pg/mL
same,"4: glycemic control, 14-day GTT (AUC)",rat scald model,139.3 ± 48.6 mg·dL·h
same,"5: kidney function, 14-day plasma creatinine",rat scald model,0.34 ± 0.13 mg/dL
same,"6: systemic oxidative stress, 14-day plasma OHDG",rat scald model,585 ± 137 pg/mL
same,7: weight loss (slope),rat scald model,2.32 ± 1.01
same,3d: hyperangiogenesis marker PctRedPix,rat scald model,16.51 ± 3.02
same,Avg: composite z-score (average z score across all 7 effect classes),"rat scald model; listed as N1, 4 mg/kg",−0.31 ± 0.35
same,Avg: composite z-score (average z score across all 7 effect classes),"rat scald model; listed as nephrilin, 4 mg/kg",−0.31
